Source: US11400059B2, “Treatment of pain and/or pain related symptoms associated with dysmenorrhea” (ALYRA BIOTECH PTY LTD, priority 2017, dated 2022)

Key:
Experiment in all cases: Human TLR antagonist screening, NF-κB SEAP reporter in HEK293 cells
Type in all cases: cell-based
hTLR7 = target: T1, hTLR7 (Homo sapiens, UniProt Q9NYK1); conditions: antagonist mode, test article 1 μM, +CL307 10 ng/ml, No Sample 13, Control− 1
T1 construct: expressed in transfected cells; host or cells: HEK293
T1 sequence (Q9NYK1 27-1049): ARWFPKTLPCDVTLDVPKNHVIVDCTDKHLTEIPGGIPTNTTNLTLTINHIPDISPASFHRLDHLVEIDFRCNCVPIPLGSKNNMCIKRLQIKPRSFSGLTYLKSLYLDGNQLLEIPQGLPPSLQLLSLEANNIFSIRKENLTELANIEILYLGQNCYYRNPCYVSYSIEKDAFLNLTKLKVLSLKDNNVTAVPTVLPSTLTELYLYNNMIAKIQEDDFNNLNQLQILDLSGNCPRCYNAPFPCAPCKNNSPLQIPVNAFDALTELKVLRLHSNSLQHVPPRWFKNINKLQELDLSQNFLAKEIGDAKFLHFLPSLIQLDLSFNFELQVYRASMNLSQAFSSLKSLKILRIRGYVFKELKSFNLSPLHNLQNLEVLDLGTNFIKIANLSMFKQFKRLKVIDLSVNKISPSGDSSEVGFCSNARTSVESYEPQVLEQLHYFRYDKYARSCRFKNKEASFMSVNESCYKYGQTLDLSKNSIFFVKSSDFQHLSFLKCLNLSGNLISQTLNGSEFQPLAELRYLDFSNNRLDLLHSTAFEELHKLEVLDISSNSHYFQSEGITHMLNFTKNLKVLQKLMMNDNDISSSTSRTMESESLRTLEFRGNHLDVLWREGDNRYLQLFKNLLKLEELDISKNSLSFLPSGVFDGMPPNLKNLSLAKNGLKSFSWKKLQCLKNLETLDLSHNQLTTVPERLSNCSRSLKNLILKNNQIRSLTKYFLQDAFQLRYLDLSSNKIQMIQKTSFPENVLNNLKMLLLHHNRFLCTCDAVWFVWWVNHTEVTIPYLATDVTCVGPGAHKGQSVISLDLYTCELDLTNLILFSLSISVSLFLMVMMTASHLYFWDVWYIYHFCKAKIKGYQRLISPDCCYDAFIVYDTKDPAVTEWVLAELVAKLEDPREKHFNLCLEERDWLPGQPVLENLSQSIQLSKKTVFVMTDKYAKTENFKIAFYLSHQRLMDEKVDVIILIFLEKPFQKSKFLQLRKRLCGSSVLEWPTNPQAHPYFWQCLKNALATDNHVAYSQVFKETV
Experimental: (§1) Toll-Like Receptor (TLR), NOD-Like Receptor (NLR) and C-Type Lectin Receptor (CLR) stimulation were tested by assessing NF-κB activation in HEK293 cells expressing a given TLR, NLR or CLR. The activity of the test articles was tested at one concentration and compared to control ligands. These steps were performed in triplicate. hTLR7: CL307 at 1 μg/mL Antagonist: 10 ng/mL. In a 96-well plate (200 μL total volume) containing the appropriate cells (50,000-75,000 cells/well), 20 μL of the test article or the positive control ligand was added to the wells. For the antagonist assay, the test article was incubated with the cells, at 37° C. with 5% CO2, for 30 minutes prior to the addition of the positive control ligand to the wells. The media added to the wells was designed for the detection of NF-κB induced SEAP expression. […] Fold induction (ratio of average induced value to average non-induced value) was determined for each TLR, NOD1, NOD2, Dectin-1a, Dectin-1b.

Human TLR2 = target: T2, Human TLR2 (Homo sapiens, UniProt O60603); conditions: antagonist mode, test article 1 μM, +HKLM 1 × 10^6 cells/mL, No Sample 6, Control− 1
T2 construct: expressed in transfected cells; host or cells: HEK293
T2 sequence (O60603 21-784): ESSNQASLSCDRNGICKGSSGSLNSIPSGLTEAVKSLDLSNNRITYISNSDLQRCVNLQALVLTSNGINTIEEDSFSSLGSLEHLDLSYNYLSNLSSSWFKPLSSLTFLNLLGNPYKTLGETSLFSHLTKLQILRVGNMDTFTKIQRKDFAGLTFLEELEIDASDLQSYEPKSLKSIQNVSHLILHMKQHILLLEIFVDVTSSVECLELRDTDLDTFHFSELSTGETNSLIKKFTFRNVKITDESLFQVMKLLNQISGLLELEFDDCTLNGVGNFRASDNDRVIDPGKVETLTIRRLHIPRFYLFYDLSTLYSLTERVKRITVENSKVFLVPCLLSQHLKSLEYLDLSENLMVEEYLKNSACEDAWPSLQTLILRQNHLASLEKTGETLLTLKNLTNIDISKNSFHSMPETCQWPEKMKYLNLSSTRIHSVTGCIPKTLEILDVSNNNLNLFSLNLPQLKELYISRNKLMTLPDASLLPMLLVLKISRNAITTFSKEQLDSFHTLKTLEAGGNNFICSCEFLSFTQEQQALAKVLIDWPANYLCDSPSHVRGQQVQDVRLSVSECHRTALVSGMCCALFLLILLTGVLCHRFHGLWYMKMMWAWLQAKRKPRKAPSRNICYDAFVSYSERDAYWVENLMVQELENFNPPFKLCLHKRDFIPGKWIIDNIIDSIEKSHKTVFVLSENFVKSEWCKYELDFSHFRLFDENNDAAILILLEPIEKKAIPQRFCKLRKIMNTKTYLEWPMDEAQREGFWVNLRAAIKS
Experimental: Toll-Like Receptor (TLR), NOD-Like Receptor (NLR) and C-Type Lectin Receptor (CLR) stimulation were tested by assessing NF-κB activation in HEK293 cells expressing a given TLR, NLR or CLR. The activity of the test articles was tested at one concentration and compared to control ligands. These steps were performed in triplicate. TLR2: […] Antagonist: 1×10^6 cells/mL: In a 96-well plate (200 μL total volume) containing the appropriate cells (50,000-75,000 cells/well), 20 μL of the test article or the positive control ligand was added to the wells. For the antagonist assay, the test article was incubated with the cells, at 37° C. with 5% CO2, for 30 minutes prior to the addition of the positive control ligand to the wells. The media added to the wells was designed for the detection of NF-κB induced SEAP expression. After a 16-24 hr incubation the optical density (OD) was read at 650 nm on a Molecular Devices SpectraMax 340PC absorbance detector. Fold induction (ratio of average induced value to average non-induced value) was determined for each TLR, NOD1, NOD2, Dectin-1a, Dectin-1b.

hTLR5 = target: T3, hTLR5 (Homo sapiens, UniProt O60602); conditions: antagonist mode, test article 1 μM, +FLA-ST 50 ng/ml, No Sample 34, Control− 1
T3 construct: expressed in transfected cells; host or cells: HEK293
T3 sequence (O60602 21-858): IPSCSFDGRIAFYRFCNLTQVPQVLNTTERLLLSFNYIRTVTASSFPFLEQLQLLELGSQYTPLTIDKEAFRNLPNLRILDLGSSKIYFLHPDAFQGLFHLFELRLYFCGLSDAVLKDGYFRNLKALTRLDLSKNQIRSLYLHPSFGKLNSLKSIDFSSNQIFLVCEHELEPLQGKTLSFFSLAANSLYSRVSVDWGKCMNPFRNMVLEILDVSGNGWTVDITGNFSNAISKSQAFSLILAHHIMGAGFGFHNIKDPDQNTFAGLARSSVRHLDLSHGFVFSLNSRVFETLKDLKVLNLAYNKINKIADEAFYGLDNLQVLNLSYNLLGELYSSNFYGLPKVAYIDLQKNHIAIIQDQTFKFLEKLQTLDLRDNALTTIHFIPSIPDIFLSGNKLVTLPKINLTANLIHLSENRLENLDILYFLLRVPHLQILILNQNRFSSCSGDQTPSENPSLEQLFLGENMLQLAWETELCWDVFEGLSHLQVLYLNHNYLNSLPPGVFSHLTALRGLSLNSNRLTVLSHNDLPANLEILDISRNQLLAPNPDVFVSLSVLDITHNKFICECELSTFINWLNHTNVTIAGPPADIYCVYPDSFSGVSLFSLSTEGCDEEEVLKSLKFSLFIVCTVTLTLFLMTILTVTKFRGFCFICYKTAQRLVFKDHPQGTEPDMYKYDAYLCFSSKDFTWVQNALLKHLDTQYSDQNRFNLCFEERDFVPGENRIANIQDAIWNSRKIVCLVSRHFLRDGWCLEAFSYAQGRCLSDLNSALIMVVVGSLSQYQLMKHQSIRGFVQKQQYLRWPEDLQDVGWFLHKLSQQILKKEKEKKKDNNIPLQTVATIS
Experimental: as §1, with “hTLR7: CL307 at 1 μg/mL Antagonist: 10 ng/mL.” left out

| Structure (SMILES) | Fold Induction (hTLR7) | Fold Induction (hTLR7; listed as Nor) | Fold Induction (Human TLR2) | Fold Induction (Human TLR2; listed as Nor) | Fold Induction (hTLR5) | Fold Induction (hTLR7; listed as Ami) | Fold Induction (Human TLR2; listed as Ami) | Fold Induction (hTLR5; listed as Ami) |
| --- | --- | --- | --- | --- | --- | --- | --- | --- |
| CNCCC=C1c2ccccc2CCc2ccccc21 [Nortriptyline] | slight potentiating | 16 | slight inhibitory effect | 5 | 34 |  |  |  |
| CN(C)CCC=C1c2ccccc2CCc2ccccc21 [Amitriptyline] | slight potentiating effect |  | slight inhibitory effect |  | slight inhibitory effect | 16 | 5 | 33 |
